From patent publication US6685840B2, “Method for determining the dissolution rate of a solid water treatment product” (Ondeo Nalco Company, priority 2002, dated 2004)

Assay: Dissolution (release) rate of the ingredients of a solid water treatment tablet in standard cooling water
Assay type: physicochemical
Set-up: key: *: value was below detection limits for this moiety
From the text: After the solid water treatment product has been formed it must be tested to determine its dissolution rate in water. Test water that is formulated to closely match the type of water found in the industrial water system of interest is provided. For example, “standard” test water for cooling water in a cooling tower typically has the following features: 60 ppm Ca^2+, 18 ppm Mg^2+, 134 ppm HCO3^−, 53 ppm Cl^− and 72 ppm SO4^2−. A typical scale formation test for a model or simulation boiler typically has these concentrations of scaling contaminants in the boiler water; 10 ppm Calcium as CaCO3, 5 ppm Magnesium as CaCO3, 5 ppm silica as SiO2. Alkalinity such as caustic (NaOH) is added in sufficient quantity to maintain a pH of typically between 10.0 and 11.0 in the boiler water.
In order to determine the dissolution rate of the solid water treatment product the solid water treatment product is placed in the test water and allowed to dissolve. A fluorometer is provided and the fluorescent signal of the Fluorescent Tracer present in the solid water treatment product is measured using the fluorometer. The fluorescent signal is measured at regular intervals.
A tablet of solid cooling water treatment product of Formulation 1, {27.6% benzotriazole, 70.4% 1-hydroxyethylidene-1,1-diphosphonic acid and 2% 1,3,6,8-pyrenetetrasulfonic acid, sodium salt} is made. The tablet weighs 0.9081 grams. The tablet is placed in standard cooling water {60 ppm Ca^2+, 18 ppm Mg^2+, 134 ppm […] , 53 ppm Cl^31 and 72 ppm SO4^2−} and the dissolution rate of each ingredient in the table is measured. The dissolution rate of each ingredient present is measured using analytical techniques suitable for analyzing for each ingredient. The dissolution rate of the benzotriazole (abbreviated “BZT”) is measured using fluorometric analytical techniques, known in the art of analyzing triazoles. The dissolution rate of 1-hydroxyethylidene-1,1-diphosphonic acid (abbreviated “HEDP”) is measured using standard “colorimetric determination” analytical techniques, known in the art of analyzing for diphosphonic acids. The dissolution rate of the 1,3,6,8-pyrenetetrasulfonic acid, sodium salt (abbreviated “PTSA”) is measured using fluorometric analytical techniques.
The results of this test are shown in Table 1 Release rates for each ingredient are given in milligrams (‘mg”) per minute (“min.”).
The same tablet was made as was made in Example 1, except that this time, the tablet was coated with a polyethylene oxide material with a molecular weight of approximately 15,000 such that the final weight of finished tablet was 1.411 grams. The dissolution rate of the three ingredients in this tablet were determined, using the same analytical techniques as in Example 1.

[1] = Example 1 uncoated tablet of Formulation 1 (0.9081 g), standard cooling water, time 0 minutes
[2] = Example 1 uncoated tablet of Formulation 1, standard cooling water, time 1 minutes
[3] = Example 1 uncoated tablet of Formulation 1, standard cooling water, time 5 minutes
[4] = Example 1 uncoated tablet of Formulation 1, standard cooling water, time 10 minutes
[5] = Example 1 uncoated tablet of Formulation 1, standard cooling water, time 15 minutes
[6] = Example 1 uncoated tablet of Formulation 1, standard cooling water, time 30 minutes
[7] = Example 1 uncoated tablet of Formulation 1, standard cooling water, time 60 minutes
[8] = Example 1 uncoated tablet of Formulation 1, standard cooling water, time 130 minutes
[9] = Example 2 tablet coated with polyethylene oxide (1.411 g), time 0 minutes
[10] = Example 2 tablet coated with polyethylene oxide, time 5 minutes
[11] = Example 2 tablet coated with polyethylene oxide, time 15 minutes
[12] = Example 2 tablet coated with polyethylene oxide, time 30 minutes
[13] = Example 2 tablet coated with polyethylene oxide, time 75 minutes, in mg/min
[14] = Example 2 tablet coated with polyethylene oxide, time 110 minutes, in mg/min
[15] = Example 2 tablet coated with polyethylene oxide, time 180 minutes, in mg/min
[16] = Example 2 tablet coated with polyethylene oxide, time 40 minutes
[17] = Example 2 tablet coated with polyethylene oxide, time 50 minutes
[18] = Example 2 tablet coated with polyethylene oxide, time 61 minutes, in mg/min

| Release Rate [1] | Release Rate [2] | Release Rate [3] [mg per min.] | Release Rate [4] [mg per min.] | Release Rate [5] [mg per min.] | Release Rate [6] [mg per min.] | Release Rate [7] | Release Rate [8] | Release Rate [9] | Release Rate [10] | Release Rate [11] | Release Rate [12] | Release Rate [13] | Release Rate [15] | Release Rate [16] [mg/min] | Release Rate [17] [mg/min] | Release Rate [18] | Compound | Release Rate [14] | further results |
| --- | --- | --- | --- | --- | --- | --- | --- | --- | --- | --- | --- | --- | --- | --- | --- | --- | --- | --- | --- |
| * | * | 8.75 | 13.8 | 11.4 | 2.167 | 0.5 mg per min. | 0.493 mg per min. | * | * | * | * | 4.393 | 0.236 | 0.2 | 2.6 | 5.545 | c1ccc2[nH]nnc2c1 [BZT, benzotriazole] | 0.829 |  |
| * | * | 10.5 | 20 | 11.4 | 0.933 | 1.03 mg per min. | 0.0143 mg per min. | * | * | * | * | 4.893 | 0.329 | 1.2 | 2.55 | 8.091 | CC(O)(P(=O)(O)O)P(=O)(O)O [HEDP, 1-hydroxyethylidene-1,1-diphosphonic acid] |  | Release Rate (Example 2 tablet coated with polyethylene oxide, time 110 minutes): 1.7 mg/min |

| Compound | Release Rate [1] | Release Rate [2] | Release Rate [3] [mg per min.] | Release Rate [4] [mg per min.] | Release Rate [5] [mg per min.] | Release Rate [6] [mg per min.] | Release Rate [7] | Release Rate [8] | Release Rate [9] | Release Rate [10] | Release Rate [11] | Release Rate [12] | Release Rate [13] | Release Rate [15] | Release Rate [16] [mg/min] | Release Rate [17] [mg/min] | Release Rate [18] | Release Rate [14] | further results |
| --- | --- | --- | --- | --- | --- | --- | --- | --- | --- | --- | --- | --- | --- | --- | --- | --- | --- | --- | --- |
| O=S(=O)([O-])c1cc(S(=O)(=O)[O-])c2ccc3c(S(=O)(=O)[O-])cc(S(=O)(=O)[O-])c4ccc1c2c43.[Na+].[Na+].[Na+].[Na+] [PTSA, 1,3,6,8-pyrenetetrasulfonic acid, sodium salt] | * | * | 0.5925 | 0.98 | 0.5 | 0.143 | * | * | * | * | * | * | 0.190 | 0.00493 |  |  |  | 0.0571 | Release Rate (Example 2 tablet coated with polyethylene oxide, time 40 minutes, in mg/min): 0.052; Release Rate (Example 2 tablet coated with polyethylene oxide, time 50 minutes, in mg/min): 0.121; Release Rate (Example 2 tablet coated with polyethylene oxide, time 61 minutes): 0.33 mg/min |
